Source: PubChem BioAssay AID330 (DTP/NCI, 2004)
Several values for one entry are separate records, joined by “and”; a condition that tells them apart may be missing. Equal entries are not always repeated. Toxic doses and inconclusive results are not listed. The calls were made as follows: active = survival T/C of 150% or more; inactive = T/C below 125% in these data. Peptide text beside a SMILES is read from it. * marks the point of attachment. Cbz = O=C(OCc1ccccc1)*

System: P388 leukemia ip, CD2F1 mice, survival T/C
Assay: NCI In Vivo Anticancer Drug Screen. Data for tumor model P388 Leukemia (intraperitoneal) in CD2F1 (CDF1) mice
Settings: endpoint: median survival time, higher = longer survival
Procedure, shortened: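 Mice carrying the transplanted tumor received test compound or vehicle. Survival was recorded in each group, and the value is the treated-group measurement divided by that of the vehicle-treated control group.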

[1] = dose: 100.0 mg/kg/injection, schedule: Q01DX009 (ip), vehicle: Klucel (hydroxypropylcellulose) (HPC)
[2] = dose: 200.0 mg/kg/injection, schedule: Q01DX009 (ip), vehicle: Klucel (hydroxypropylcellulose) (HPC)
[3] = dose: 400.0 mg/kg/injection, schedule: Q01DX009 (ip), vehicle: Klucel (hydroxypropylcellulose) (HPC)
[4] = dose: 50.0 mg/kg/injection, schedule: Q01DX005 (ip), vehicle: saline with Tween-80
[5] = dose: 100.0 mg/kg/injection, schedule: Q01DX005 (ip), vehicle: saline with Tween-80
[6] = dose: 200.0 mg/kg/injection, schedule: Q01DX005 (ip), vehicle: saline with Tween-80
[7] = dose: 50.0 mg/kg/injection, schedule: Q01DX005 (ip), vehicle: Klucel (hydroxypropylcellulose) (HPC)
[8] = dose: 100.0 mg/kg/injection, schedule: Q01DX005 (ip), vehicle: Klucel (hydroxypropylcellulose) (HPC)
[9] = dose: 200.0 mg/kg/injection, schedule: Q01DX005 (ip), vehicle: Klucel (hydroxypropylcellulose) (HPC)
[10] = dose: 25.0 mg/kg/injection, schedule: Q01DX009 (ip), vehicle: saline
[11] = dose: 25.0 mg/kg/injection, schedule: Q04DX003 (ip), vehicle: saline
[12] = dose: 50.0 mg/kg/injection, schedule: Q01DX009 (ip), vehicle: saline
[13] = dose: 50.0 mg/kg/injection, schedule: Q04DX003 (ip), vehicle: saline
[14] = dose: 100.0 mg/kg/injection, schedule: Q01DX009 (ip), vehicle: saline
[15] = dose: 100.0 mg/kg/injection, schedule: Q04DX003 (ip), vehicle: saline
[16] = dose: 6.25 mg/kg/injection, schedule: Q01DX009 (ip), vehicle: saline
[17] = dose: 12.5 mg/kg/injection, schedule: Q01DX009 (ip), vehicle: saline
[18] = dose: 60.0 mg/kg/injection, schedule: Q01DX005 (ip), vehicle: saline with Tween-80
[19] = dose: 120.0 mg/kg/injection, schedule: Q01DX005 (ip), vehicle: saline with Tween-80
[20] = dose: 100.0 mg/kg/injection, schedule: Q01DX009 (ip), vehicle: saline with Tween-80
[21] = dose: 200.0 mg/kg/injection, schedule: Q01DX009 (ip), vehicle: saline with Tween-80
[22] = dose: 50.0 mg/kg/injection, schedule: Q01DX009 (ip), vehicle: saline with Tween-80

Measured: T/C

CCCCOP(O)(=S)OCCCC.[Ti]
inactive: [1] 96 % of control | [2] 96 % of control | [3] 95 % of control

c1ccc(CNc2nnc3nc(-c4ccccc4)c(-c4ccccc4)nn23)cc1
inactive: [4] 117 % of control | [5] 114 % of control | [6] 105 % of control

C=CCC(OC(=O)c1ccc(Br)cc1)C1(C)OC1C(C)C1CC(O)(C(OC)OC)NC(=O)O1 (centres undefined)
inactive: dose: 0.25 mg/kg/injection, schedule: Q01DX009 (ip), vehicle: saline + alcohol 108 % of control | dose: 0.5 mg/kg/injection, schedule: Q01DX009 (ip), vehicle: saline + alcohol 107 % of control | dose: 1.0 mg/kg/injection, schedule: Q01DX009 (ip), vehicle: saline + alcohol 115 % of control

COC1=C(OC)C(=O)C(N(C)C)=C(CO)C1=O
inactive: dose: 30.0 mg/kg/injection, schedule: Q01DX005 (ip), vehicle: saline 105 % of control | dose: 60.0 mg/kg/injection, schedule: Q01DX005 (ip), vehicle: saline 103 % of control and 108 % of control | dose: 120.0 mg/kg/injection, schedule: Q01DX005 (ip), vehicle: saline 117 % of control and 120 % of control

Nc1ccc2nc3ccc(O)cc3nc2c1
inactive: [7] 103 % of control | [8] 108 % of control | [9] 105 % of control

CC(=O)/C(C)=C/C(=O)O
inactive: [10] 100 % of control | [11] 104 % of control | [12] 100 % of control | [13] 122 % of control | [14] 109 % of control | [15] 100 % of control

[Cl][Al]([Cl])[Cl]
inactive: [16] 100 % of control | dose: 12.5 mg/kg/injection, schedule: Q01DX009 (ip), vehicle: saline sonified 100 % of control | [17] 100 % of control | dose: 25.0 mg/kg/injection, schedule: Q01DX009 (ip), vehicle: saline sonified 90 % of control | [10] 95 % of control | dose: 50.0 mg/kg/injection, schedule: Q01DX009 (ip), vehicle: saline sonified 95 % of control | [15] 90 % of control | dose: 200.0 mg/kg/injection, schedule: Q04DX003 (ip), vehicle: saline 95 % of control and 100 % of control | dose: 400.0 mg/kg/injection, schedule: Q04DX003 (ip), vehicle: saline 86 % of control

C/C=C1\C[N+]2(C)CCC34c5ccccc5NC32C(O)CC1C4(CO)C(=O)OC (centres undefined)
inactive: dose: 4.0 mg/kg/injection, schedule: Q01DX009 (ip), vehicle: saline with Tween-80 110 % of control | dose: 4.0 mg/kg/injection, schedule: Q01DX009 (ip), vehicle: saline 113 % of control | dose: 8.0 mg/kg/injection, schedule: Q01DX009 (ip), vehicle: saline with Tween-80 110 % of control | dose: 8.0 mg/kg/injection, schedule: Q01DX009 (ip), vehicle: saline 97 % of control | dose: 16.0 mg/kg/injection, schedule: Q01DX009 (ip), vehicle: saline with Tween-80 103 % of control | dose: 16.0 mg/kg/injection, schedule: Q01DX009 (ip), vehicle: saline 105 % of control | dose: 32.0 mg/kg/injection, schedule: Q01DX009 (ip), vehicle: saline with Tween-80 110 % of control | dose: 32.0 mg/kg/injection, schedule: Q01DX009 (ip), vehicle: saline 98 % of control

Cc1nc2ccccc2nc1N
inactive: [18] 94 % of control | [19] 98 % of control | dose: 240.0 mg/kg/injection, schedule: Q01DX005 (ip), vehicle: saline with Tween-80 98 % of control

O=C1NC(=S)S/C1=C\c1ccncc1
inactive: dose: 50.0 mg/kg/injection, schedule: Q01DX009 (ip), vehicle: Klucel (hydroxypropylcellulose) (HPC) 100 % of control and 110 % of control and 116 % of control | [1] 106 % of control (2×) and 114 % of control | [2] 98 % of control and 121 % of control and 91 % of control | [3] 106 % of control

COc1cc(C(=O)NN=C(C)C)cc(OC)c1OC
inactive: [7] 101 % of control | [8] 104 % of control | [9] 101 % of control

COc1ccc(C2(c3ccc(OC)cc3)c3ccccc3C(=O)c3ccc(OC)cc32)cc1
inactive: [4] 98 % of control | [5] 100 % of control | [6] 96 % of control

COc1cccc(C(=O)Nc2ccccc2-c2ccccc2)c1OC
inactive: [4] 97 % of control | [5] 95 % of control | [6] 87 % of control

C=CCNC(=S)NCC
inactive: [20] 100 % of control | [21] 104 % of control | dose: 400.0 mg/kg/injection, schedule: Q01DX009 (ip), vehicle: saline with Tween-80 109 % of control

CC1(C)[C@H]2Cc3c(ccc4c3C(=O)OC4=O)[C@@H]1C2
inactive: dose: 50.0 mg/kg/injection, schedule: Q01DX005 (ip), vehicle: Klucel + Tween-80 107 % of control | dose: 100.0 mg/kg/injection, schedule: Q01DX005 (ip), vehicle: Klucel + Tween-80 112 % of control

Nc1c(O)c(S(=O)(=O)O)c(O)c2c1C(=O)c1ccccc1C2=O
inactive: [18] 100 % of control | [19] 98 % of control

S=c1s/c(=C\c2ccccc2)c2nc3ccccc3n12
inactive: [12] 90 % of control | [14] 88 % of control

O=C(O)C(Cc1ccc(O)cc1)NC(=O)C1CCCN1C(=O)OCc1ccccc1 (stereo not drawn) (Cbz-Pro-Tyr-OH; configuration not given here)
inactive: dose: 50.0 mg/kg/injection, schedule: Q01DX005 (ip), vehicle: saline 96 % of control | dose: 100.0 mg/kg/injection, schedule: Q01DX005 (ip), vehicle: saline 96 % of control | dose: 200.0 mg/kg/injection, schedule: Q01DX005 (ip), vehicle: saline 96 % of control

COc1ccc2[nH]c(C(=O)N(C)C)cc2c1
inactive: [4] 100 % of control | [5] 104 % of control | [6] 101 % of control

O=C(O)CC(=O)C(C(=O)O)C(CCc1ccccc1)C(C(=O)O)C(=O)CC(=O)O (centres undefined)
inactive: dose: 3.12 mg/kg/injection, schedule: Q01DX009 (ip), vehicle: saline with Tween-80 92 % of control | dose: 6.25 mg/kg/injection, schedule: Q01DX009 (ip), vehicle: saline with Tween-80 101 % of control | dose: 12.5 mg/kg/injection, schedule: Q01DX009 (ip), vehicle: saline with Tween-80 100 % of control | [22] 89 % of control and 92 % of control | [21] 90 % of control

O=N[O-].O=N[O-].[Co].[NH-]CC[N-]CCO.[NH-]CC[N-]CCO
inactive: [16] 95 % of control | [17] 99 % of control | [10] 94 % of control | [12] 95 % of control

NC(N)=N/N=C/C=N/N=C(N)N
inactive: [16] 118 % of control | dose: 6.25 mg/kg/injection, schedule: Q04DX003 (ip), vehicle: saline 100 % of control | [17] 100 % of control | [10] 95 % of control and 100 % of control | [11] 90 % of control and 100 % of control | [12] 86 % of control and 100 % of control | [13] 100 % of control | [14] 86 % of control | [15] 95 % of control and 100 % of control

O=[N+]([O-])c1ccc(-c2nc(/C=N/N3CCCCC3)cs2)s1
inactive: dose: 25.0 mg/kg/injection, schedule: Q01DX009 (ip), vehicle: saline with Tween-80 104 % of control | [22] 106 % of control | [20] 109 % of control

C/C(C#N)=C/c1ccccc1
inactive: [22] 104 % of control | [20] 118 % of control

COc1ccc2c(c1)[C@]13CCN(N=O)[C@H](C2)[C@@H]1CCC(=O)C3
inactive: dose: 25.0 mg/kg/injection, schedule: Q01DX001 (ip), vehicle: saline with Tween-80 92 % of control | dose: 50.0 mg/kg/injection, schedule: Q01DX001 (ip), vehicle: saline with Tween-80 108 % of control | dose: 100.0 mg/kg/injection, schedule: Q01DX001 (ip), vehicle: saline with Tween-80 106 % of control and 92 % of control

COC(=O)/C(C#N)=C/c1cccnc1
inactive: [7] 101 % of control | [8] 101 % of control | [9] 107 % of control

CS(=O)(=O)Nc1cccc2c1-c1ccccc1C2=O
inactive: [7] 96 % of control | [8] 101 % of control | [9] 88 % of control

COC(CCC1N=C1c1ccccc1)OC (centres undefined)
inactive: dose: 100.0 mg/kg/injection, schedule: Q04DX002 (ip), vehicle: saline with Tween-80 105 % of control | dose: 200.0 mg/kg/injection, schedule: Q04DX002 (ip), vehicle: saline with Tween-80 102 % of control | dose: 400.0 mg/kg/injection, schedule: Q04DX002 (ip), vehicle: saline with Tween-80 102 % of control
